Assay results reported in ChEMBL document CHEMBL3045561, “Feeding deterrents from Zanthoxylum schinifolium against two stored-product insects” (J Agric Food Chem, 2009).

Columns and labels:
Type in all cases: functional
Tribolium castaneum [1] = assay: Feeding deterrent activity against adult Tribolium castaneum (red flour beetle) on compound pre-treated wheat flour disks assessed as relative growth rate at 100 ppm after 3 days by flour disk bioassay (reference value: 29.49 +/-1.35 ug/mg/day)
Sitophilus zeamais [2] = assay: Feeding deterrent activity against adult Sitophilus zeamais on compound pretreated wheat flour disks assessed as mortality at 300 ppm after 3 days by flour disk bioassay (reference value: 0%)
Sitophilus zeamais [3] = assay: Feeding deterrent activity against adult Sitophilus zeamais on compound pretreated wheat flour disks at 10 ppm after 3 days by flour disk bioassay
Sitophilus zeamais [4] = assay: Feeding deterrent activity against adult Sitophilus zeamais on compound pretreated wheat flour disks assessed as food utilization rate at 10 ppm after 3 days by flour disk bioassay (reference value: 11.09 +/-1.12%)
Sitophilus zeamais [5] = assay: Feeding deterrent activity against adult Sitophilus zeamais on compound pretreated wheat flour disks assessed as food utilization rate at 300 ppm after 3 days by flour disk bioassay (reference value: 11.09 +/-1.12%)
Tribolium castaneum [6] = assay: Feeding deterrent activity against adult Tribolium castaneum (red flour beetle) on compound pre-treated wheat flour disks assessed as relative food consumption rate at 100 ppm after 3 days by flour disk bioassay (reference value: 143.22 +/-4.32 ug/mg/day)
Tribolium castaneum [7] = assay: Feeding deterrent activity against adult Tribolium castaneum (red flour beetle) on compound pre-treated wheat flour disks assessed as relative food consumption rate at 3 ppm after 3 days by flour disk bioassay (reference value: 143.22 +/-4.32 ug/mg/day)
Sitophilus zeamais [8] = assay: Feeding deterrent activity against adult Sitophilus zeamais on compound pretreated wheat flour disks assessed as mortality at 1000 ppm after 3 days by flour disk bioassay (reference value: 0%)
Sitophilus zeamais [9] = assay: Feeding deterrent activity against adult Sitophilus zeamais on compound pretreated wheat flour disks assessed as relative growth rate at 3 ppm after 3 days by flour disk bioassay (reference value: 13.61 +/-1.13 ug/mg/day)
Sitophilus zeamais [10] = assay: Feeding deterrent activity against adult Sitophilus zeamais on compound pretreated wheat flour disks assessed as relative growth rate at 1000 ppm after 3 days by flour disk bioassay (reference value: 13.61 +/-1.13 ug/mg/day)
Sitophilus zeamais [11] = assay: Feeding deterrent activity against adult Sitophilus zeamais on compound pretreated wheat flour disks assessed as relative growth rate at 300 ppm after 3 days by flour disk bioassay (reference value: 13.61 +/-1.13 ug/mg/day)
Sitophilus zeamais [12] = assay: Feeding deterrent activity against adult Sitophilus zeamais on compound pretreated wheat flour disks assessed as mortality at 30 ppm after 3 days by flour disk bioassay (reference value: 0%)
Tribolium castaneum [13] = assay: Feeding deterrent activity against adult Tribolium castaneum (red flour beetle) on compound pre-treated wheat flour disks assessed as relative growth rate at 3 ppm after 3 days by flour disk bioassay (reference value: 29.49 +/-1.35 ug/mg/day)
Sitophilus zeamais [14] = assay: Feeding deterrent activity against adult Sitophilus zeamais on compound pretreated wheat flour disks assessed as food utilization rate at 1000 ppm after 3 days by flour disk bioassay (reference value: 11.09 +/-1.12%)
Sitophilus zeamais [15] = assay: Feeding deterrent activity against adult Sitophilus zeamais on compound pretreated wheat flour disks assessed as relative growth rate at 100 ppm after 3 days by flour disk bioassay (reference value: 13.61 +/-1.13 ug/mg/day)
Tribolium castaneum [16] = assay: Feeding deterrent activity against adult Tribolium castaneum (red flour beetle) on compound pre-treated wheat flour disks assessed as food utilization rate at 1000 ppm after 3 days by flour disk bioassay (reference value: 20.59 +/-1.47%)
Sitophilus zeamais [17] = assay: Feeding deterrent activity against adult Sitophilus zeamais on compound pretreated wheat flour disks at 1000 ppm after 3 days by flour disk bioassay
Tribolium castaneum [18] = assay: Feeding deterrent activity against adult Tribolium castaneum (red flour beetle) on compound pre-treated wheat flour disks assessed as mortality at 100 ppm after 3 days by flour disk bioassay (reference value: 0%)
Sitophilus zeamais [19] = assay: Feeding deterrent activity against adult Sitophilus zeamais on compound pretreated wheat flour disks assessed as relative food consumption rate at 1000 ppm after 3 days by flour disk bioassay (reference value: 122.72 +/-4.32 ug/mg/day)
Tribolium castaneum [20] = assay: Feeding deterrent activity against adult Tribolium castaneum (red flour beetle) on compound pre-treated wheat flour disks at 1000 ppm after 3 days by flour disk bioassay
Tribolium castaneum [21] = assay: Feeding deterrent activity against adult Tribolium castaneum (red flour beetle) on compound pre-treated wheat flour disks assessed as mortality at 300 ppm after 3 days by flour disk bioassay (reference value: 0%)
Tribolium castaneum [22] = assay: Feeding deterrent activity against adult Tribolium castaneum (red flour beetle) on compound pre-treated wheat flour disks assessed as food utilization rate at 100 ppm after 3 days by flour disk bioassay (reference value: 20.59 +/-1.47%)
Tribolium castaneum [23] = assay: Feeding deterrent activity against adult Tribolium castaneum (red flour beetle) on compound pre-treated wheat flour disks assessed as food utilization rate at 3 ppm after 3 days by flour disk bioassay (reference value: 20.59 +/-1.47%)
Sitophilus zeamais [24] = assay: Feeding deterrent activity against adult Sitophilus zeamais on compound pretreated wheat flour disks at 100 ppm after 3 days by flour disk bioassay
Tribolium castaneum [25] = assay: Feeding deterrent activity against adult Tribolium castaneum (red flour beetle) on compound pre-treated wheat flour disks assessed as relative food consumption rate at 1000 ppm after 3 days by flour disk bioassay (reference value: 143.22 +/-4.32 ug/mg/day)
Tribolium castaneum [26] = assay: Feeding deterrent activity against adult Tribolium castaneum (red flour beetle) on compound pre-treated wheat flour disks assessed as mortality at 10 ppm after 3 days by flour disk bioassay (reference value: 0%)
Sitophilus zeamais [27] = assay: Feeding deterrent activity against adult Sitophilus zeamais on compound pretreated wheat flour disks at 3 ppm after 3 days by flour disk bioassay
Tribolium castaneum [28] = assay: Feeding deterrent activity against adult Tribolium castaneum (red flour beetle) on compound pre-treated wheat flour disks assessed as relative growth rate at 10 ppm after 3 days by flour disk bioassay (reference value: 29.49 +/-1.35 ug/mg/day)
Sitophilus zeamais [29] = assay: Feeding deterrent activity against adult Sitophilus zeamais on compound pretreated wheat flour disks assessed as food utilization rate at 100 ppm after 3 days by flour disk bioassay (reference value: 11.09 +/-1.12%)
Tribolium castaneum [30] = assay: Feeding deterrent activity against adult Tribolium castaneum (red flour beetle) on compound pre-treated wheat flour disks assessed as relative food consumption rate at 10 ppm after 3 days by flour disk bioassay (reference value: 143.22 +/-4.32 ug/mg/day)
Tribolium castaneum [31] = assay: Feeding deterrent activity against adult Tribolium castaneum (red flour beetle) on compound pre-treated wheat flour disks at 100 ppm after 3 days by flour disk bioassay
Sitophilus zeamais [32] = assay: Feeding deterrent activity against adult Sitophilus zeamais on compound pretreated wheat flour disks at 300 ppm after 3 days by flour disk bioassay
Sitophilus zeamais [33] = assay: Feeding deterrent activity against adult Sitophilus zeamais on compound pretreated wheat flour disks assessed as relative food consumption rate at 300 ppm after 3 days by flour disk bioassay (reference value: 122.72 +/-4.32 ug/mg/day)
Tribolium castaneum [34] = assay: Feeding deterrent activity against adult Tribolium castaneum (red flour beetle) on compound pre-treated wheat flour disks at 30 ppm after 3 days by flour disk bioassay
Sitophilus zeamais [35] = assay: Feeding deterrent activity against adult Sitophilus zeamais on compound pretreated wheat flour disks assessed as relative food consumption rate at 30 ppm after 3 days by flour disk bioassay (reference value: 122.72 +/-4.32 ug/mg/day)

| Structure (SMILES) | Activity (Tribolium castaneum [1]) [µg/mg/day] | mortality at 300 ppm (Sitophilus zeamais [2]) [%] | FDI (Sitophilus zeamais [3]) [%] | ECI (Sitophilus zeamais [4]) [%] | ECI (Sitophilus zeamais [5]) [%] | Activity (Tribolium castaneum [6]) [µg/mg/day] | Activity (Tribolium castaneum [7]) [µg/mg/day] | mortality at 1000 ppm (Sitophilus zeamais [8]) [%] | Activity (Sitophilus zeamais [9]) [µg/mg/day] | Activity (Sitophilus zeamais [10]) [µg/mg/day] | Activity (Sitophilus zeamais [11]) [µg/mg/day] | mortality at 30 ppm (Sitophilus zeamais [12]) [%] | Activity (Tribolium castaneum [13]) [µg/mg/day] | ECI (Sitophilus zeamais [14]) [%] | Activity (Sitophilus zeamais [15]) [µg/mg/day] | ECI (Tribolium castaneum [16]) [%] | FDI (Sitophilus zeamais [17]) [%] | mortality at 100 ppm (Tribolium castaneum [18]) [%] | Activity (Sitophilus zeamais [19]) [µg/mg/day] | FDI (Tribolium castaneum [20]) [%] | other results |
| --- | --- | --- | --- | --- | --- | --- | --- | --- | --- | --- | --- | --- | --- | --- | --- | --- | --- | --- | --- | --- | --- |
| COc1ccc2c(OC)c3ccoc3nc2c1OC [SKIMMIANINE] | 8.49 | 4 | 10.21 | 10.67 | 6.81 | 61.88 | 137.89 | 10 | 13.27 | 0.77 | 3.07 | 0 | 27.92 | 4.21 | 4.99 | 7.81 | 82.43 | 2 | 18.31 | 89.56 | mortality at 300 ppm (Tribolium castaneum [21]): 6%; ECI (Tribolium castaneum [22]): 13.72%; ECI (Tribolium castaneum [23]): 20.25%; FDI (Sitophilus zeamais [24]): 47.32%; Activity (Tribolium castaneum [25]): 15.72 µg/mg/day; mortality at 10 ppm (Tribolium castaneum [26]): 0%; FDI (Sitophilus zeamais [27]): 3.53%; Activity (Tribolium castaneum [28]): 24.21 µg/mg/day; ECI (Sitophilus zeamais [29]): 8.37%; Activity (Tribolium castaneum [30]): 124.71 µg/mg/day; FDI (Tribolium castaneum [31]): 57.45%; FDI (Sitophilus zeamais [32]): 60.24%; Activity (Sitophilus zeamais [33]): 45.13 µg/mg/day; FDI (Tribolium castaneum [34]): 30.12%; Activity (Sitophilus zeamais [35]): 92.84 µg/mg/day |
| CCCCCCCc1cc(=O)c2ccccc2n1C [SCHINIFOLINE] | 6.17 | 6 | 10.28 | 10.73 | 5.92 | 53.37 | 139.51 | 16 | 13.72 | 0.4 | 2.04 | 2 | 28.85 | 3.84 | 3.79 | 3.29 | 92.15 | 2 | 10.51 | 98.34 | mortality at 300 ppm (Tribolium castaneum [21]): 8%; ECI (Tribolium castaneum [22]): 11.57%; ECI (Tribolium castaneum [23]): 20.68%; FDI (Sitophilus zeamais [24]): 59.19%; Activity (Tribolium castaneum [25]): 2.13 µg/mg/day; mortality at 10 ppm (Tribolium castaneum [26]): 0%; FDI (Sitophilus zeamais [27]): 1.47%; Activity (Tribolium castaneum [28]): 24.24 µg/mg/day; ECI (Sitophilus zeamais [29]): 7.54%; Activity (Tribolium castaneum [30]): 119.29 µg/mg/day; FDI (Tribolium castaneum [31]): 66.28%; FDI (Sitophilus zeamais [32]): 72.35%; Activity (Sitophilus zeamais [33]): 34.51 µg/mg/day; FDI (Tribolium castaneum [34]): 45.07%; Activity (Sitophilus zeamais [35]): 89.93 µg/mg/day |
